Source: ChEMBL document CHEMBL1201862, “PubChem BioAssay data set” (2004)
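Test compounds were applied to cells in 96-well plates for 48 hours at 5 doses. GI50: concentration for 50% inhibition of growth.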 The source made the active and inactive calls. Rule as the data show it: active = GI50 up to about 1.1 µM and inactive = higher.

Columns and labels:
Assay in all cases: growth of human tumour cells (NCI), 48 h
786-0 = system: 786-0
A498 = system: A498
CAKI-1 = system: CAKI-1
CCRF-CEM = system: CCRF-CEM
DLD-1 = system: DLD-1
Hs-578T = system: Hs-578T
LOX IMVI = system: LOX IMVI
M14 = system: M14
MDA-MB-231 = system: MDA-MB-231
MDA-N = system: MDA-N
MOLT-4 = system: MOLT-4
NCI/ADR-RES = system: NCI/ADR-RES
OVCAR-3 = system: OVCAR-3
OVCAR-8 = system: OVCAR-8
RPMI-8226 = system: RPMI-8226
RXF 393 = system: RXF 393
SF-268 = system: SF-268
SK-MEL-28 = system: SK-MEL-28
SR = system: SR
UACC-62 = system: UACC-62

Measured: GI50

CCc1nc2cc(/N=N/c3c(O)ccc4ccccc34)ccc2[nH]1
inactive: 786-0 16.1 µM | A498 21.5 µM | CAKI-1 22.4 µM | CCRF-CEM 3.47 µM | DLD-1 15 µM | Hs-578T 21.1 µM | LOX IMVI 10.1 µM | M14 19.6 µM | MDA-MB-231 20.7 µM | MDA-N 23.8 µM | MOLT-4 7.98 µM | NCI/ADR-RES 22.3 µM | OVCAR-3 16.4 µM | OVCAR-8 14.5 µM | RPMI-8226 10.5 µM | RXF 393 12.6 µM | SF-268 22.2 µM | SK-MEL-28 20.3 µM | SR 2.14 µM | UACC-62 18.2 µM

COc1ccc2c(CCNC(C)=O)c(C(C)=O)[nH]c2c1
inactive: 786-0 > 100 µM | A498 > 100 µM | CAKI-1 70.5 µM | CCRF-CEM > 100 µM | DLD-1 > 100 µM | LOX IMVI > 100 µM | M14 > 100 µM | MOLT-4 > 100 µM | OVCAR-3 > 100 µM | OVCAR-8 > 100 µM | RPMI-8226 > 100 µM | RXF 393 > 100 µM | SF-268 48.4 µM | SK-MEL-28 > 100 µM | SR > 100 µM | UACC-62 > 100 µM

CSc1nc2[nH]c(=O)c(C)nc2c(=O)[nH]1
inactive: 786-0 > 100 µM | A498 > 100 µM | CAKI-1 > 100 µM | CCRF-CEM > 100 µM | DLD-1 > 100 µM | LOX IMVI > 100 µM | M14 > 100 µM | MOLT-4 > 100 µM | OVCAR-3 > 100 µM | OVCAR-8 > 100 µM | RPMI-8226 > 100 µM | RXF 393 > 100 µM | SF-268 > 100 µM | SK-MEL-28 > 100 µM | SR > 100 µM | UACC-62 > 100 µM
